Assay results reported in patent US20110009597A1, “RECOMBINANT GANODERMA LUCIDIUM IMMUNOMODULATORY PROTEIN (rLZ-8) AND USES THEREOF” (priority 2008, published 2011).

B1: FITC-rLZ-8: rLZ-8 labelled with Fluorescein-5-Isothiocyanate (FITC) (conjugate, UniProt P14945 2-111, looked up)
Immunomodulatory protein Ling …: SDTALIFRLAWDVKKLSFDYTPNWGRGNPNNFIDTVTFPKVLTDKAYTYRVAVSGRNLGVKPSYAVESDGSQKVNFLEYNSGYGIADTNTIQVFVVDPDTNNDFIIAQWN
modifications: FITC label

How the values were obtained:
WBC [1] = test: Number of leukocytes in S180 tumor-bearing mice; conditions: CTX 20 mg·kg^−1
Experimental: (§1) Mice, 18-22 g, males and females were equally divided, provided by Jilin University Laboratory Animal Center; Mice Ehrlich ascites cells strain, provided by our laboratory S180; Cyclophosphamide (CTX), offered by Jiangsu Hengrui Medicine Co., Ltd., lot number: 06101921. S180 ascites tumors and solid tumors in experiment group were divided into normal control group, negative control group, positive control group, rLZ-8 low-dose treatment group (0.25 mg·kg^−1), rLZ-8 medium-dose treatment group (0.5 mg·kg^−1), rLZ-8 high-dose treatment group (1 mg·kg^−1). For each group 10 mice.
Select well-growing S180 cells, dilute appropriately with sterile saline into a tumor cell suspension, cell counts for 10^7·L^−1, under the right armpit of each mouse inoculated subcutaneously 0.2 ml (except for the normal control group). Treatment after 24 h of vaccination. Normal control group and negative control group were given saline 0.2 ml·each^−l·d^−1, intraperitoneal injection; positive control group were given cyclophosphamide 20 mg·kg^−1, intraperitoneal injection. rLZ-8 treatment groups were given doses of tail venous injection respectively, 0.2 ml·each^−1·d^−1, in 10 consecutive days. Draw blood from orbital venous plexus 10 days before and after medication respectively, sent to Jilin University No. 1 Hospital clinical laboratory to test and analyze the number of WBC. […]

S180 cells = test: Mouse transplanted S180 subcutaneous tumor inhibition; type: in vivo, Mice; conditions: CTX 20 mg·kg^−1 intraperitoneal
Experimental: as §1
Select well-growing S180 cells, dilute appropriately with sterile saline into a tumor cell suspension, cell counts for 10^7·L^−1, under the right armpit of each mouse inoculated subcutaneously 0.2 ml (except for the normal control group). Treatment after 24 h of vaccination. Normal control group and negative control group were given saline 0.2 ml·each^−l·d^−1, intraperitoneal injection; positive control group were given cyclophosphamide 20 mg·kg^−1, intraperitoneal injection. rLZ-8 treatment groups were given doses of tail venous injection respectively, 0.2 ml·each^−1·d^−1, in 10 consecutive days. Draw blood from orbital venous plexus 10 days before and after medication respectively, sent to Jilin University No. 1 Hospital clinical laboratory to test and analyze the number of WBC. Kill all mice the next day of drug withdrawal at cervical dislocation, dissect anatomically and take out the tumors, weigh tumors, calculate the inhibition rate using the following equation:
Inhibition rate (%)=(average tumore weight of the control group−average tumore weight of the experiment group)/average tumor weight of the control group×100%

WBC [2] = test: WBC numbers in H22 tumor-bearing mice; conditions: CTX 20 mg·kg^−1
Experimental: (§2) Mice, weight 18-22g, males and females were divided equally, from Jilin University Laboratory Animal Center. Mouse hepatoma cell strain H22, offered by our laboratory. Cyclophosphamide (CTX), offered by Jiangsu Hengrui Medicine Co., Ltd., lot number: 06101921.
(§3) H22 hepatoma cells experiment group were divided into normal control group, negative control group, positive control group, rLZ-8 low-dose treatment group (0.25 mg·kg^−1), rLZ-8 medium-dose treatment group (0.5 mg·kg^−1), rLZ-8 high-dose treatment group (1 mg·kg^−1). For each group 10 mice.
H22 subcutaneous tumor tumor inhibition experiment methods: Select well-growing 1-122 cells, dilute appropriately with sterile saline into a tumor cell suspension, cell counts for 10^7·L^−1, under the right armpit of each mouse inoculated subcutaneously 0.2 ml (except for the normal control group). Treatment after 24 h of vaccination. […] Kill all the mice the next day of drug withdrawal at cervical dislocation, dissected anatomically and took out the tumors, weigh tumors, calculated the inhibition rate using the following equation: […]

[3] = test system: Mouse hepatoma cell strain H22; test: H22 subcutaneous tumor inhibition experiment; type: in vivo, Mice; conditions: CTX 20 mg·kg^−1 intraperitoneal
Experimental: as §2, §3
H22 subcutaneous tumor tumor inhibition experiment methods: Select well-growing 1-122 cells, dilute appropriately with sterile saline into a tumor cell suspension, cell counts for 10^7·L^−1, under the right armpit of each mouse inoculated subcutaneously 0.2 ml (except for the normal control group). Treatment after 24 h of vaccination. Normal control group and negative control group were given saline 0.2 ml·each^−1·d^−1, intraperitoneal injection; positive control group were given cyclophosphamide 20 mg·kg^−1, 0.2 ml·each^−1·d^−1, intraperitoneal injection. rLZ-8 treatment groups were given doses of tail venous injection respectively, 0.2 ml·each^−1·d^−1, in 10 consecutive days. Draw blood from orbital venous plexus 10 days before and after medication respectively, sent to Jilin University No. 1 Hospital clinical laboratory to test and analyze the number of WBC. Kill all the mice the next day of drug withdrawal at cervical dislocation, dissected anatomically and took out the tumors, weigh tumors, calculated the inhibition rate using the following equation:
Inhibition rate (%)=(average tumore weight of the control group−average tumor weight of the experiment group)/average tumor weight of the control group×100%

rat myocardial tissues = test: FITC-rLZ-8 labeling of rat myocardial tissues; type: binding; conditions: FITC-rLZ-8 100 ng·ml^−1, 1 h, 37° C.
Experimental: Leica CM1850 frozen slicer; wistar rat; fluorescence microscope 80i (Nikon); isotonic PBS buffer (pH7.2); fetal bovine serum (FBS, Gibco); FITC-rLZ-8 is prepared by our laboratory. Cut the rats at neck and kill them, and strip the hearts, put them to frozen microtome till the temperature dropped to −20° C. for slicing, hatching for 1 h at 37° C. when the myocaridial and PBS preparation of FITC-rLZ-8 solution (100 ng·ml^−1), observing under fluorescence microscope to observe, and establish a blank control group.

HL-60 cells = test: FITC-rLZ-8 labeling of HL-60 cells; type: binding
Experimental: Fluorescence microscope 80i (Nikon), IMDM cell culture medium (Hyclone), fetal bovine serum (FBS, Gibco), FITC-rLZ-8 and isotonic PBS buffer (pH7.2) Prepared by our laboratory.
Vaccinated the HL-60 by 2×106 inoculation on 24-hole plate, each hole 0.5 ml, with IMDM (2% FBS) culture medium prepared FITC-rLZ-8 for 100 ng·ml^−1, each hole 0.5 ml hatching (37° C.), establish a control group, experiment group 1 h and experiment group 6 h, draw the cells respectively from 1 h and 6 h, mixing into 1.5 ml EP tube, 1000 r·min^−1 centrifuge, clear the supernatant, wash with PBS 3 times, re-suspend after washing.

rabbit chondrocytes = test: FITC-rLZ-8 labeling of primary rabbit chondrocytes; type: binding; conditions: FITC-rLZ-8 0.25 μg·ml^−1, 1 h, 37° C.
Experimental: Japanese white rabbits (male, 2.5 kg) 4; surgical instruments; 025% trypsogen+0.02% EDTA; 0.2% collagenasell; D-Hanks; IMDM medium ([…], vitamin C, double-antibody); 0.025 mg·ml^−1 Poly-lysine solution; sterile water for injection (WFI).
Fix the experiment animals and execute them with air embolism, skinned abdominal in the middle and exposed the limbs, cutting the muscle fascia with scissors, disconnected the backbone from os longum, remove carefully the entire knee, hip and shoulder bones, with a rough pruning, immersed into D-Hanks. Moved the beaker with tissues into the super-clean units, move the tissues after pruning and cleansing into the 2nd sterile D-Hanks cup; assemble the knife, cutting a thin layer of cartilage off, use curved forceps move into the 6 cm culture incubator, washing with D-Hanks three times, discard majority of D-Hanks, cut the cartilage into 1 mm slices with ophthalmic scissors, discard majority of D-Hanks, spoon removing the broken bone vials into a 10 cm^2 culture flask, mix with trypsogen EDTA for digestion, 37° C., 30 min; replace the trypsogen for collagenase, put it into the hatching incubator of 37° C., taking out and shaking 5 min every 1 h, with 4-4.5 h, finish digestion. Prepare it to the cell suspension solution and mix 3 ml IMDM containing FBS 15%, 5×10^4·ml^−1 vaccinated into the culture flask. […]

Molecule	Number of leukocytes, 10th day of medication (WBC [1])	Inhibition rate (%) (S180 cells)	Tumor weight (S180 cells) [g]	WBC numbers, 10th day of medication (WBC [2])	Inhibition rate (%) [3] [%]	Tumor weight [3] [g]	fluorescence of myocardial tissues (rat myocardial tissues)	cell appearance of HL-60 (HL-60 cells; FITC-rLZ-8 100 ng·ml^−1, group 6 h)	fluorescence of HL-60 cells (HL-60 cells; FITC-rLZ-8 100 ng·ml^−1, incubation of 1 h and 6 h)	fluorescence of rabbit chondrocytes (rabbit chondrocytes)
O=P1(N(CCCl)CCCl)NCCCO1 (stereo not shown) [CTX, Cyclophosphamide, reference compound]	4.41 ± 0.25	65.3	0.35 ± 0.02	4.49 ± 0.21	62.5	0.45 ± 0.02	–	–	–	–
B1	–	–	–	–	–	–	without visible fluorescence	agglutination of cells	strong green fluorescence	without green fluorescence
